Measured values published in patent US11370798B2 (Vertex Pharmaceuticals Incorporated, priority 2012, dated 2022).
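Further: Test-compound concentration that lowers the Cisplatin IC50 by a set fold.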

What follows are compounds tested on HCT116 colorectal cancer cells (assay: Cisplatin sensitization assay (96 h cell viability MTS)). Conditions: compound and Cisplatin added simultaneously, Cisplatin sensitization value.
Format: cell-based
In short: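 Compound and cisplatin added together as a full matrix of 2-fold serial dilutions from a top final concentration of 10 μM; cells incubated 96 h at 37° C, 5% CO2. Viability then read by MTS after 1 h further incubation; sensitization value reported in μM bins.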
CCOc1ccncc1NC(=O)c1c(N)nn2cc(F)cnc12 [I-O-14, 2-amino-N-(4-ethoxypyridin-3-yl)-6-fluoropyrazolo[1,5-a]pyrimidine-3-carboxamide] was tested, and the “Cisplatin Sensitization Assay” value was “+++ (Cisplatin sensitization value of <0.02 μM)”. For Nc1nn2cc(F)cnc2c1C(=O)Nc1cncc(F)c1N1CCC(c2nccs2)CC1 [I-N-184, 2-amino-6-fluoro-N-(5-fluoro-4-(4-(thiazol-2-yl)piperidin-1-yl)pyridin-3-yl)pyrazolo[1,5-a]pyrimidine-3-carboxamide], the “Cisplatin Sensitization Assay” value was “++ (Cisplatin sensitization value>0.02 μM but <0.2 μM)”. For CN1CCN(c2c(NC(=O)c3c(N)nn4cc(F)cnc34)cncc2C2CC2)CC1 [I-N-5, 2-amino-N-(5-cyclopropyl-4-(4-methylpiperazin-1-yl)pyridin-3-yl)-6-fluoropyrazolo[1,5-a]pyrimidine-3-carboxamide], the “Cisplatin Sensitization Assay” value was “++ (Cisplatin sensitization value>0.02 μM but <0.2 μM)”. For Cn1ccc2c(NC(=O)c3c(N)nn4cc(F)cnc34)cncc21 [I-C-74, 2-amino-6-fluoro-N-(1-methyl-1H-pyrrolo[2,3-c]pyridin-4-yl)pyrazolo[1,5-a]pyrimidine-3-carboxamide], the “Cisplatin Sensitization Assay” value was “+ (Cisplatin sensitization value>0.2 μM but <5 μM)”. With Nc1nn2cc(Cl)cnc2c1C(=O)Nc1cnccc1OCC(F)(F)F [I-O-59, 2-amino-6-chloro-N-(4-(2,2,2-trifluoroethoxy)pyridin-3-yl)pyrazolo[1,5-a]pyrimidine-3-carboxamide] the “Cisplatin Sensitization Assay” value was “+++ (Cisplatin sensitization value of <0.02 μM)”. In the case of Nc1nn2cc(F)cnc2c1C(=O)Nc1cnccc1O[C@H]1Cc2nccn2C1 [I-O-16, (S)-2-amino-N-(4-((6,7-dihydro-5H-pyrrolo[1,2-a]imidazol-6-yl)oxy)pyridin-3-yl)-6-fluoropyrazolo[1,5-a]pyrimidine-3-carboxamide], the “Cisplatin Sensitization Assay” value is reported as “+++ (Cisplatin sensitization value of <0.02 μM)”. For CN(C)CCN1CCN(c2ccncc2NC(=O)c2c(N)nn3cc(Cl)cnc23)CC1 [I-N-49, 2-amino-6-chloro-N-(4-(4-(2-(dimethylamino)ethyl)piperazin-1-yl)pyridin-3-yl)pyrazolo[1,5-a]pyrimidine-3-carboxamide], the “Cisplatin Sensitization Assay” value was “+++ (Cisplatin sensitization value of <0.02 μM)”. In the case of Nc1nn2cc(F)cnc2c1C(=O)Nc1cnccc1-n1ccnc1C(F)(F)F [I-N-219, 2-amino-6-fluoro-N-(4-(2-(trifluoromethyl)-1H-imidazol-1-yl)pyridin-3-yl)pyrazolo[1,5-a]pyrimidine-3-carboxamide], the “Cisplatin Sensitization Assay” value is reported as “+++ (Cisplatin sensitization value of <0.02 μM)”. With Nc1nn2cc(F)cnc2c1C(=O)Nc1cncc(F)c1N1CCN2CCOC[C@@H]2C1 [I-N-137, (S)-2-amino-6-fluoro-N-(5-fluoro-4-(hexahydropyrazino[2,1-c][1,4]oxazin-8(1H)-yl)pyridin-3-yl)pyrazolo[1,5-a]pyrimidine-3-carboxamide] the “Cisplatin Sensitization Assay” value was “++ (Cisplatin sensitization value>0.02 μM but <0.2 μM)”. With Nc1nn2cc(F)cnc2c1C(=O)Nc1cnccc1N1CCC(c2ncon2)CC1 [I-N-241, N-(4-(4-(1,2,4-oxadiazol-3-yl)piperidin-1-yl)pyridin-3-yl)-2-amino-6-fluoropyrazolo[1,5-a]pyrimidine-3-carboxamide] the “Cisplatin Sensitization Assay” value was “+++ (Cisplatin sensitization value of <0.02 μM)”. For CS(=O)(=O)c1ccc(-c2ccncc2NC(=O)c2c(N)nn3cc(F)cnc23)cc1 [I-C-61, 2-amino-6-fluoro-N-(4-(4-(methylsulfonyl)phenyl)pyridin-3-yl)pyrazolo[1,5-a]pyrimidine-3-carboxamide], the “Cisplatin Sensitization Assay” value was “+++ (Cisplatin sensitization value of <0.02 μM)”. With CC1(N2CCN(c3ccncc3NC(=O)c3c(N)nn4cc(F)cnc34)CC2)COC1 [I-N-62, 2-amino-6-fluoro-N-(4-(4-(3-methyloxetan-3-yl)piperazin-1-yl)pyridin-3-yl)pyrazolo[1,5-a]pyrimidine-3-carboxamide] the “Cisplatin Sensitization Assay” value was “++ (Cisplatin sensitization value>0.02 μM but <0.2 μM)”. With COc1cncc(NC(=O)c2c(N)nn3cc(F)cnc23)c1-c1cncn1C [I-C-81, 2-amino-6-fluoro-N-(5-methoxy-4-(1-methyl-1H-imidazol-5-yl)pyridin-3-yl)pyrazolo[1,5-a]pyrimidine-3-carboxamide] the “Cisplatin Sensitization Assay” value was “+++ (Cisplatin sensitization value of <0.02 μM)”. In the case of Nc1nn2cc(F)cnc2c1C(=O)Nc1cncc(F)c1N1CCN2C(=O)OC[C@@H]2C1 [I-N-248, (S)-2-amino-6-fluoro-N-(5-fluoro-4-(3-oxotetrahydro-1H-oxazolo[3,4-a]pyrazin-7(3H)-yl)pyridin-3-yl)pyrazolo[1,5-a]pyrimidine-3-carboxamide], the “Cisplatin Sensitization Assay” value is reported as “++ (Cisplatin sensitization value>0.02 μM but <0.2 μM)”. In the case of COc1cc(Cl)ncc1NC(=O)c1c(N)nn2cc(CC#N)cnc12 [I-O-27, 2-amino-N-(6-chloro-4-methoxypyridin-3-yl)-6-(cyanomethyl)pyrazolo[1,5-a]pyrimidine-3-carboxamide], the “Cisplatin Sensitization Assay” value is reported as “++ (Cisplatin sensitization value>0.02 μM but <0.2 μM)”. With Nc1nn2cc(F)cnc2c1C(=O)Nc1cncc(F)c1N1CCC(C(=O)N2CC(F)C2)CC1 [I-G-67, 2-amino-6-fluoro-N-(5-fluoro-4-(4-(3-fluoroazetidine-1-carbonyl)piperidin-1-yl)pyridin-3-yl)pyrazolo[1,5-a]pyrimidine-3-carboxamide] the “Cisplatin Sensitization Assay” value was “+++ (Cisplatin sensitization value of <0.02 μM)”. In the case of Cc1ncn(C)c1-c1ccncc1NC(=O)c1c(N)nn2cc(F)cnc12 [I-C-78, 2-amino-N-(4-(1,4-dimethyl-1H-imidazol-5-yl)pyridin-3-yl)-6-fluoropyrazolo[1,5-a]pyrimidine-3-carboxamide], the “Cisplatin Sensitization Assay” value is reported as “++ (Cisplatin sensitization value>0.02 μM but <0.2 μM)”. For CN1CCN(c2c(F)cncc2NC(=O)c2c(N)nn3cc(F)cnc23)CC1 [I-N-15, 2-amino-6-fluoro-N-(5-fluoro-4-(4-methylpiperazin-1-yl)pyridin-3-yl)pyrazolo[1,5-a]pyrimidine-3-carboxamide], the “Cisplatin Sensitization Assay” value was “+++ (Cisplatin sensitization value of <0.02 μM)”. Nc1nn2cc(F)cnc2c1C(=O)Nc1cncc(F)c1N1CCN(C(=O)C2COC2)CC1 [I-N-278, 2-amino-6-fluoro-N-(5-fluoro-4-(4-(oxetane-3-carbonyl)piperazin-1-yl)pyridin-3-yl)pyrazolo[1,5-a]pyrimidine-3-carboxamide] was tested, and the “Cisplatin Sensitization Assay” value was “+++ (Cisplatin sensitization value of <0.02 μM)”. In the case of CS(=O)(=O)C1CCN(c2c(Cl)cncc2NC(=O)c2c(N)nn3cc(F)cnc23)C1 (stereo not shown) [I-N-287, 2-amino-N-(5-chloro-4-(3-(methylsulfonyl)pyrrolidin-1-yl)pyridin-3-yl)-6-fluoropyrazolo[1,5-a]pyrimidine-3-carboxamide], the “Cisplatin Sensitization Assay” value is reported as “+++ (Cisplatin sensitization value of <0.02 μM)”. With COC1CN(C2CCN(c3ccncc3NC(=O)c3c(N)nn4cc(Cl)cnc34)CC2)C1 [I-N-107, 2-amino-6-chloro-N-(4-(4-(3-methoxyazetidin-1-yl)piperidin-1-yl)pyridin-3-yl)pyrazolo[1,5-a]pyrimidine-3-carboxamide] the “Cisplatin Sensitization Assay” value was “+++ (Cisplatin sensitization value of <0.02 μM)”. Cc1nccnc1-c1ccncc1NC(=O)c1c(N)nn2cc(F)cnc12 [I-C-62, 2-amino-6-fluoro-N-(4-(3-methylpyrazin-2-yl)pyridin-3-yl)pyrazolo[1,5-a]pyrimidine-3-carboxamide] was tested, and the “Cisplatin Sensitization Assay” value was “++ (Cisplatin sensitization value>0.02 μM but <0.2 μM)”.
